This is an account of results in patent publication US10039846B2, “Compositions targeting bradykinin receptor B1 for medical imaging of cancer and other disorders” (BRITISH COLUMBIA CANCER AGENCY BRANCH, priority 2012, dated 2018).

Several values for one entry are separate records, joined by “and”; a condition that tells them apart may be missing. Equal entries are not always repeated. Where two headings read alike, the source gives them in different places. Where a SMILES comes first, the peptide text is derived from it. [ ]: non-standard residue; d: D form. The star is where a group is joined. DOTA = O=C(O)CN1CCN(CC(=O)O)CCN(CC(=O)*)CCN(CC(=O)O)CC1; Hyp = O=C(O)[C@@H]1C[C@@H](O)CN1; Cha = N[C@@H](CC1CCCCC1)C(=O)O; PEG2 = NCCOCCOCCC(=O)O

One data set concerns the target T1, B1R (Homo sapiens, UniProt P46663).
T1 sequence (P46663 1-353): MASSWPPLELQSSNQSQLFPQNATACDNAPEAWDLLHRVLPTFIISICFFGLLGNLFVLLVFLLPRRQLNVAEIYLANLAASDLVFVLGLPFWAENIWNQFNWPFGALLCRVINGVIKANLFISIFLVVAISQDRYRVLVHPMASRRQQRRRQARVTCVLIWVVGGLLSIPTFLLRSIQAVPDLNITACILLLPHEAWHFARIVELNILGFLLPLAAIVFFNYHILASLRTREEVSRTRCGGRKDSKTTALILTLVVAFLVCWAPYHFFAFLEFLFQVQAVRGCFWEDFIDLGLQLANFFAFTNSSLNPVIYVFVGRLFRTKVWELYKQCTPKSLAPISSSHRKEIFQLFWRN
As to the kind of experiment: Competitive binding assay with 3H radioligand on CHO-K1 cell membranes over-expressing human B1R. More on the design: purchased Perkin Elmer Inc., Waltham, Mass; ES-091-M400UA; host or cells: CHO-K1 cells over-expressing human B1R (membrane preparation). The procedure:
The ability of the peptide and small molecule B1R targeting compounds to bind to B1R was assessed in competitive binding assay as described below.
Preparation of Cell Membranes: Ready to use cell membranes (12.5 μg/μL) from CHO-K1 cells over-expressing human B1R were obtained from Perkin Elmer Inc., Waltham, Mass. (cat. no. ES-091-M400UA). Binding using cell membranes from HEK293T::GFP::hB1R (from Example 3) was also tested. In the latter case, the membranes were prepared as follows: 90% confluent cells grown in large flask, T225, were detached and pelleted in a 50 mL conical tube using centrifuge at 1,200 rpm for 5 minutes. Afterward, cells were re-suspended in 20-30 mL of cold 50 mM Tris-HCl pH 7.4. Ice cold cells were disrupted for 15 seconds at 15,000 rpm with a Polytron PT3100 (Kinematica AG, Lucerne, Switzerland). The solution was aliquoted and centrifuged at 4° C. at 17,000×g for 30 minutes. The supernatant was discarded, and then the pellet was dissolved in 1-2 mL of cold salt solution containing 50 mM Tris-HCl pH 7.4 and 100 mM NaCl and incubated for 1 hour on ice. The cell membranes were pelleted by centrifugation at 4° C. at 17,000×g for 30 minutes and resuspended in 200-600 μL of 50 mM Tris-HCl pH 7.4. The cell membrane extract was stored at −80° C. Protein concentration was determined by Bradford assay (cat. no. R1271, Fermentas, Thermo Fisher Scientific, Burlington, ON). 50 ug of cell membranes per well was used for the competitive binding assay. […] Radio-labelled control was H-3 labelled [Leu^9,des-Arg^10] kallidin obtained either from American Radiolabelled Chemicals Inc, St. Louis, Mo.
Competitive Binding Assays: Assays were performed using 96-well MultiScreenHTS with glass fiber filter and PVDF support obtained from Millipore Corp, Billerica, Mass. (cat. no. MSFB N6B, lot no. R8AN42424). Wells of the MultiScreen plate were pre-soaked with 0.5% of cold Poly(ethyleneimine) (PEI) (cat. no. P3143, Sigma-Aldrich, St. Louis, Mo.) for 30 minutes. Afterward, wells were washed once with 50 mM of Tris-HCl pH 7.4. Total volume per wells was 200 μL. A fixed concentration of the hot radioligand (1, 3, 5 or 12.5 nM depending on the radioligand; see Table 5) was incubated with progressively higher concentrations (10^−11 to 10^−4 M) of the non-radioactive competitor of interest in the presence of cell membranes (50 μg/well) and the assay buffer (50 mM Tris-HCl pH 7.4, 5 mM MgCl2). The MultiScreen plate was then incubated at 27° C. for 15 minutes with agitation at 300 rpm. The assay was stopped by suctioning the reaction solution through the bottom PVDF membrane filter and discarded. The membranes were washed 7× with 150 μL/well of cold 50 mM Tris-HCl pH 7.4. Radioactivity was counted using 1450 MicroBeta TriLux—Microplate Scintillation and Luminescence Counter (Perkin Elmer Inc., Shelton, Conn.).

A further data set is described as follows: in vivo. The following applies: NODSCID IL2RKO, mouse, iv, total radioactivity. The method, then: Tumour Implantation: Imaging and biodistribution experiments were performed using NODSCID IL2RKO mice. Each cage, equipped with enrichments, contained three or four mice. The mice were maintained and the experiments were conducted in accordance with the guidelines established by Canadian Council on Animal Care and approved by Animal Ethics Committee of the University of British Columbia. Mice were housed under pathogen-free conditions and kept on twelve hour light and twelve hour dark cycle in the Animal Research Centre, British Columbia Cancer Research Centre, Vancouver, Canada.
Mice were anesthetised briefly with 2.5% isoflurane in 2.0 L/min of oxygen during cell implantation. After wiping the skin surrounding the injection site with an alcohol prep pad, a 31-Gauge needle was used to inject 10^7 HEK293T::GFP and HEK293T::hB1R cells in matrigel (1:1) on the back of the mouse. Imaging was performed once the tumour lump was visible. Tumour size was measured by CT and calculated using the ellipsoid formula: V^3mm=width×length×thickness×0.524.
PET/CT Imaging: Each tumour-bearing mouse was injected with ˜3.7 MBq of Ga-68 labelled Peptide 3 through the tail vein. The mice were imaged using the BC Cancer Agency Inveon microPET/CT scanner that has a 1.3 mm spatial resolution and a high sensitivity. Briefly, a localization CT scan was first obtained using 3 overlapping positions to cover the entire mouse. This CT scan was used for attenuation and scatter correction after segmentation for reconstructing the PET images. A dynamic acquisition was then performed for 60 minutes, with the mouse under isoflurane sedation. The animals were kept warm by a monitoring system with an integrated heating pad and physiological acquisition system. At the end of the acquisition, the mice were euthanized, and major organs were collected, weighed, and counted to determine the % injected dose per gram of tissue (% ID/g). The images were reconstructed using OSEM/3DMAP iterative reconstruction, and representative images of Ga-68 labelled Peptide 3 at 1 h post-injection are shown in FIG. 4.

In data set [1] the test system is HEK-293 and HEK-293/BKRB1 tumours. As to the kind of experiment: Biodistribution of Ga-68 Peptide 12 in tumour-bearing mice. In kind it is in vivo, mouse. More on the design: Biodistribution Spleen Average / Biodistribution Liver Average / Biodistribution Adrenal glands Average / Biodistribution Kidney Average / Biodistribution Muscle Average / Biodistribution Brain Average / Biodistribution Blood Average / Biodistribution Fat Average: unit not given here. The settings on record: 1 h post-injection. The text has this:
Peptide 12 is an […] version of Peptide 3 that was developed by substituting the C-terminal Leu residue with a D-Phe residue.

Where [2] appears, read: average of individual competitive binding assays, read-out: Affinity Ki (nM) Average.
Where [3] appears, read: Hot 12.5 nM BK-AG-ARC, CHO-K1 membranes, individual assays, read-out: Ki.

Regarding `COc1cc(C)c(S(=O)(=O)N(C)CCOCC(=O)N2CCC(C3CCN(CCF)CC3)CC2)c(C)c1` [Compound 15], the Ki – broadly, the dissociation constant of the complex between target and ligand, obtained from inhibition or displacement – on B1R (Hot 4.5 nM BK-ANT-ARC, CHO-K1 membranes, individual assays, read-out: Ki) was determined as 0.81 nM; on B1R (setting [2]), 0.81 nM.

For `Cc1ccc(S(=O)(=O)N2c3ccccc3NC(=O)[C@H]2CC(=O)NCCc2ccc(NCCF)cc2)cc1` [Compound 6], the Ki at B1R (setting [3]) and at B1R (setting [2]) was 1010 nM throughout.

`CC(C)C[C@H](NC(=O)[C@@H]1CCCN1C(=O)[C@H](CO)NC(=O)[C@H](CC1CCCCC1)NC(=O)CNC(=O)[C@@H]1C[C@@H](O)CN1C(=O)[C@@H]1CCCN1C(=O)[C@H](CCCNC(=N)N)NC(=O)[C@H](CCCCN)NC(=O)CCOCCOCCNC(=O)CN1CCN(CC(=O)O)CCN(CC(=O)O)CCN(CC(=O)O)CC1)C(=O)O` [Ga-68 Peptide 3, ^68Ga-DOTA-PEG2-Lys-Arg-Pro-Hyp-Gly-Cha-Ser-Pro-Leu, metal not drawn] ({DOTA-PEG2}-KRP[Hyp]G[Cha]SPL-OH): the tissue uptake – broadly, the share of the injected amount in each gram of the tissue – at 1 h in the data set “in vivo” (3.7 MBq, % ID/g Blood Average) came out at 0.26 %ID/g; in the data set “in vivo” (3.7 MBq, % ID/g Bone Average), 0.34 %ID/g; in the data set “in vivo” (3.7 MBq, % ID/g Brain Average), 0.03 %ID/g; in “in vivo” (3.7 MBq, % ID/g Colon Average), 0.34 %ID/g; in the data set “in vivo” (3.7 MBq, % ID/g Fat Average) it was 0.12 %ID/g; in “in vivo” (3.7 MBq, % ID/g Heart Average), 0.19 %ID/g. In addition, the tissue uptake at 1 h in “in vivo” (3.7 MBq, % ID/g LEFT Tumour (B1R) Average) worked out at 1.32 %ID/g; in “in vivo” (3.7 MBq, % ID/g Left Kidney Average), 5.14 %ID/g; in “in vivo” (3.7 MBq, % ID/g Liver Average), 0.16 %ID/g; in the data set “in vivo” (3.7 MBq, % ID/g Lungs Average), 0.43 %ID/g; in “in vivo” (3.7 MBq, % ID/g Muscle Average) it was 0.11 %ID/g; in the data set “in vivo” (3.7 MBq, % ID/g Pancreas Average) it was 0.13 %ID/g. The tissue uptake at 1 h in the data set “in vivo” (3.7 MBq, % ID/g Plasma Average) is 0.77 %ID/g; in “in vivo” (3.7 MBq, % ID/g RIGHT Tumour (GFP) Average), 0.23 %ID/g; in the data set “in vivo” (3.7 MBq, % ID/g Right Kidney Average), 6.79 %ID/g; in the data set “in vivo” (3.7 MBq, % ID/g Small Intestine Average), 0.2 %ID/g; in “in vivo” (3.7 MBq, % ID/g Spleen Average), 0.11 %ID/g; in “in vivo” (3.7 MBq, % ID/g Stomach Average), 0.11 %ID/g. For the same molecule, in “in vivo” (% ID/g Tail Average), the tissue uptake at 1 h turned out to be 0.45 %ID/g.

Take `Cc1ccc(S(=O)(=O)N2c3ccccc3NC(=O)[C@H]2CC(=O)Nc2ccc(N3CCN(CCF)CC3)cc2)cc1` [Compound 7]: the Ki at B1R (setting [3]) is 113 nM and 39.5 nM and 260 nM; on B1R (Hot 12.5 nM BK-ANT-ARC, CHO-K1 membranes, individual assays, read-out: Ki) it was 20.7 nM; on B1R (setting [2]), 108 nM.

For the molecule `N=C(N)NCCC[C@H](NC(=O)[C@H](CCCCN)NC(=O)CCCCCNC(=O)CN1CCN(CC(=O)O)CCN(CC(=O)O)CCN(CC(=O)O)CC1)C(=O)N1CCC[C@H]1C(=O)N1C[C@H](O)C[C@H]1C(=O)NCC(=O)N[C@@H](CC1CCCCC1)C(=O)N[C@@H](CO)C(=O)N1CCC[C@H]1C(=O)N[C@H](Cc1ccccc1)C(=O)O` [Ga-68 Peptide 12, ^68Ga-DOTA-Ahx-Lys-Arg-Pro-Hyp-Gly-Cha-Ser-Pro-(D-Phe), metal not drawn], the “Biodistribution Adrenal glands Average” value in data set [1] (Adrenal glands) was found to be 0.001. Further, in data set [1] (Blood), the “Biodistribution Blood Average” value stood at 0.039. This molecule showed a Biodistribution Bone Average in data set [1] (Bone) of 0.093 %ID/g. Also, the “Biodistribution Brain Average” value in data set [1] (Brain) is 0.009. For the same molecule, in data set [1] (Fat), the “Biodistribution Fat Average” value stood at 0.039. For the same molecule, the Biodistribution Heart Average in data set [1] (Heart) amounted to 0.15 %ID/g. Further, the “Biodistribution Kidney Average” value in data set [1] (Kidney) amounted to 6.436. Besides, the Biodistribution Large intestine Average in data set [1] (Large intestine) was 0.149 %ID/g. In data set [1] (Left tumour), this molecule gave a Biodistribution Left tumour Average of 0.194 %ID/g. For the same molecule, the “Biodistribution Liver Average” value in data set [1] (Liver) is 0.129. For the same molecule, in data set [1] (Lungs), the Biodistribution Lungs Average is 0.8 %ID/g. Further, the “Biodistribution Muscle Average” value in data set [1] (Muscle) is listed as 0.056. Also, the “Biodistribution Pancreas Average” value in data set [1] (Pancreas) came out at 0.069. In data set [1] (Plasma), this molecule registered a Biodistribution Plasma Average of 0.473 %ID/g. Besides, the “Biodistribution Right tumour Average” value in data set [1] (Right tumour, in %ID/g) came to 7.909. The molecule further gave a Biodistribution Seminal glands Average in data set [1] (Seminal glands) of 0.23 %ID/g. Further, in data set [1] (Skin), the Biodistribution Skin Average came to 0.223 %ID/g. Further, the Biodistribution Small intestine Average in data set [1] (Small intestine) came to 0.208 %ID/g. The “Biodistribution Spleen Average” value in data set [1] (Spleen) worked out at 0.127. Further, in data set [1] (Tail), the Biodistribution Tail Average came out at 0.226 %ID/g. Besides, the Biodistribution Testes Average in data set [1] (Testes) was 0.132 %ID/g.

As to `Cc1ccc(S(=O)(=O)N2c3ccccc3NC(=O)[C@H]2CC(=O)NCc2ccc(NCCF)cc2)cc1` [Compound 8], the inhibition constant (Ki) at B1R (setting [3]) and on B1R (setting [2]) was 6920 nM in each case.
